{"source": "patent US20130296311A1", "about": "“INHIBITORS OF HCV NS5A” (PRESIDIO PHARMACEUTICALS, INC., priority 2010, published 2013)"}
{"test_system": "HCV 1b_Huh-Luc/Neo-ET cell line persistently expressing a bicistronic genotype 1b replicon in Huh 7 cells", "assay": "HCV replicon assay (luciferase readout, 72 h)", "type": "cell-based, HCV genotype 1b", "conditions": "Hepatitis C virus, Huh-7, 72 h, read-out: Inhibition of HCV genotype 1b", "outline": "(§1)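 EC50 values come from a four-parameter fit of luciferase signal as % of untreated control, repeated across several determinations. The signal is from the HCV 1b_Huh-Luc/Neo-ET replicon line, dosed in triplicate one day post-plating and incubated 72 h before Bright-Glo readout.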", "units": {"EC50": "nM"}}
{"smiles": "CS(=O)(=O)N[C@@H](C(=O)N1CCC[C@H]1c1ncc(-c2ccc(C#Cc3ccc(-c4cnc([C@@H]5CCCN5C(=O)[C@@H](c5ccccc5)N5CCCCC5)[nH]4)cc3)cc2)[nH]1)c1ccccc1", "note": "[Compound 231]", "EC50": "< 1"}
{"smiles": "COC(=O)N[C@H](C(=O)N1CCC[C@H]1c1ncc(-c2ccc(C#Cc3ccc(-c4cnc([C@H](C)NC(=O)[C@H](C(C)C)N(C)C)[nH]4)cc3)cc2)[nH]1)C(C)C", "note": "[Compound 981]", "EC50": "10 to 999"}
{"smiles": "COC(=O)N[C@@H](C(=O)N1CCC[C@H]1c1ncc(-c2ccc(C#Cc3ccc(C(=O)NC[C@@H]4CCCN4C(=O)[C@@H](c4ccccc4)N4CCCCC4)cc3)cc2)[nH]1)c1ccccc1", "note": "[Compound 233]", "EC50": "< 1"}
{"smiles": "COC(=O)N[C@H](C(=O)N1CCC[C@H]1c1ncc(-c2ccc(C#Cc3ccc4c(c3)CCc3nc([C@@H]5CCCN5C(=O)[C@@H](NC(=O)OC)C(C)C)[nH]c3-4)cc2)[nH]1)C(C)C", "note": "[Compound 1094]", "EC50": "< 1"}
{"smiles": "COC(=O)N[C@H](C(=O)N1CCC[C@H]1c1nc(-c2ccc3cc(C#Cc4cnc([C@@H]5CCCN5C(=O)[C@@H](NC(=O)OC)C(C)C)[nH]4)ccc3c2)c[nH]1)c1ccccc1", "note": "[Compound 1078]", "EC50": "< 1"}
{"smiles": "C[C@H](NC(=O)[C@@H]1CCCN1C(=O)[C@H](NC(=O)OC(C)(C)C)c1ccccc1)c1ccc(C#Cc2ccc(-c3cnc([C@@H]4CCCN4C(=O)[C@H](NC(=O)OC(C)(C)C)c4ccccc4)[nH]3)cc2)cc1", "note": "[Compound 169]", "EC50": "1 to 9.9"}
{"smiles": "O=C(N[C@@H](C(=O)N1CCC[C@H]1C(=O)NCCc1ccc(C#Cc2cnc([C@@H]3CCCN3C(=O)[C@H](NC(=O)C3CC3)c3ccccc3)[nH]2)cc1)c1ccccc1)C1CC1", "note": "[Compound 125]", "EC50": "< 1"}
{"smiles": "CN(C)[C@@H](C(=O)N1CCC[C@H]1c1ncc(-c2ccc(C#Cc3ccc(-c4cnc([C@@H]5CCCN5C(=O)[C@@H](c5ccccc5)N(C)C)[nH]4)cc3)cc2)[nH]1)c1ccccc1", "note": "[Compound 160]", "EC50": "< 1"}
{"smiles": "COC(=O)N[C@H](C(=O)N[C@@H](C)c1ncc(-c2ccc(C#Cc3ccc4nc([C@H](C)NC(=O)[C@@H](NC(=O)OC)C(C)C)[nH]c4c3)cc2)[nH]1)C(C)C", "note": "[Compound 868]", "EC50": "< 1"}
{"smiles": "COC(=O)N[C@@H](C(=O)N1CCC[C@H]1c1ncc(-c2ccc(C#Cc3ccc(-c4cnc([C@@H]5CCCN5C(=O)[C@H](NC(=O)[C@@H]5CCCO5)c5ccccc5)[nH]4)cc3)cc2)[nH]1)c1ccccc1", "note": "[Compound 195]", "EC50": "< 1"}
{"smiles": "COC(=O)N[C@H](C(=O)N1CCC[C@H]1c1nc2ccc(-c3ccc(C#Cc4cnc([C@@H]5CCCN5C(=O)[C@H](NC(=O)OC)c5ccccc5)[nH]4)cc3)cc2[nH]1)C(C)C", "note": "[Compound 1085]", "EC50": "< 1"}
{"smiles": "COC(=O)N[C@@H](C(=O)N1CCC[C@H]1c1ncc(-c2ccc(C#Cc3ccc(C(=O)NC[C@@H]4CCCN4C(=O)[C@@H](c4ccccc4)N(C)C)cc3)cc2)[nH]1)c1ccccc1", "note": "[Compound 234]", "EC50": "< 1"}
{"smiles": "C[C@H](NC(=O)[C@@H]1CCCN1C(=O)[C@H](NC(=O)C1CC1)c1ccccc1)c1ccc(C#Cc2cnc([C@@H]3CCCN3C(=O)[C@H](NC(=O)C3CC3)c3ccccc3)[nH]2)cc1", "note": "[Compound 132]", "EC50": "10 to 999"}
{"smiles": "O=C(N[C@@H](C(=O)N1CCC[C@H]1c1nc(-c2ccc3cc(C#Cc4cnc([C@@H]5CCCN5C(=O)[C@H](NC(=O)N5CC[C@@H](O)C5)c5ccccc5)[nH]4)ccc3c2)c[nH]1)c1ccccc1)N1CC[C@@H](O)C1", "note": "[Compound 807]", "EC50": "1 to 9.9"}
{"smiles": "CC(C)(C)OC(=O)N[C@@H](C(=O)N1CCC[C@H]1c1cc(-c2ccc(C#Cc3ccc(-c4cnc([C@@H]5CCCN5C(=O)[C@H](NC(=O)OC(C)(C)C)c5ccccc5)[nH]4)cc3)cc2)n[nH]1)c1ccccc1", "note": "[Compound 210]", "EC50": "< 1"}
{"smiles": "CC(C)[C@H](NC(=O)OC(C)(C)C)C(=O)N1CCC[C@H]1c1ncc(-c2ccc(C#Cc3ccc(-c4cnc([C@@H]5CCCN5C(=O)[C@@H](NC(=O)OC(C)(C)C)C(C)C)[nH]4)cc3)cc2)[nH]1", "note": "[Compound 165]", "EC50": "10 to 999"}
{"smiles": "COC(=O)N[C@@H](C(=O)N1CCC[C@H]1c1ncc(C#Cc2ccc(-c3ccc(-c4cnc([C@@H]5CCCN5C(=O)[C@H](NC(=O)OC)c5ccccc5)[nH]4)cc3)cc2)[nH]1)c1ccccc1", "note": "[Compound 750]", "EC50": "< 1"}
{"smiles": "CC(C)[C@H](NC(=O)C1CC1)C(=O)N1CCC[C@H]1c1ncc(-c2ccc(C#Cc3ccc(-c4cnc([C@@H]5CCCN5C(=O)[C@@H](NC(=O)C5CC5)C(C)C)[nH]4)cc3)cc2)[nH]1", "note": "[Compound 170]", "EC50": "1 to 9.9"}
{"test_system": "HCV 1b_Huh-Luc/Neo-ET cell line persistently expressing a bicistronic genotype 1b replicon in Huh 7 cells", "assay": "HCV replicon assay (luciferase readout, 72 h)", "type": "cell-based, HCV genotype 1b", "conditions": "Hepatitis C virus, Huh-7, read-out: Inhibition of HCV genotype 1b", "outline": "as §1", "units": {"EC50": "nM"}}
{"smiles": "COC(=O)N[C@H](C(=O)N1CCC[C@H]1c1ncc(-c2ccc3cc(C#Cc4[nH]c([C@@H]5CCCN5C(=O)[C@@H](NC(=O)OC)C(C)C)nc4C4CC4)ccc3c2)[nH]1)C(C)C", "note": "[Compound 1300]", "EC50": "< 1"}
{"smiles": "CC[C@H](C)[C@H](NC(=O)OC)C(=O)N1CCC[C@H]1c1ncc(-c2ccc3cc(C#Cc4[nH]c([C@@H]5CCCN5C(=O)[C@@H](NC(=O)OC)[C@@H](C)CC)nc4C(F)(F)F)ccc3c2)[nH]1", "note": "[Compound 1253]", "EC50": "< 1"}
